# Results from article PMC5948259, “A phase I study to assess the mass balance, excretion, and pharmacokinetics of [^14C]-ixazomib, an oral proteasome inhibitor, in patients with advanced solid tumors” (Investigational New Drugs, 2017).
# Values joined by “and” are separate entries in the source; they are usually repeats but may differ in a detail not shown here. Equal values may be shown once. Read-outs that look alike come from different tables or passages of the source.
# What was measured:
# relapsed/refractory MM = tested on: relapsed/refractory MM; design: method as in PMID 27119237; settings: cited from earlier work
# CYP1A2 = tested on: CYP1A2; design: method as in earlier work; settings: 10 μM, exceeding clinical concentrations; cited from earlier work
# [1] = tested on: cytochrome P450 (CYP) and non-CYP proteins; design: method as in earlier work; settings: clinically relevant ixazomib concentrations; cited from earlier work
# [2] = Mass balance: recovery of TRA in urine and feces by accelerator mass spectrometry; format: in vivo, human; settings: for Total recovery (%) of TRA in urine and feces: days 1–35
# Experimental: (§1) The primary objectives of the study were: (1) to assess the mass balance (i.e., cumulative excretion of TRA in urine and feces) of ixazomib following a single oral solution dose of 4.1 mg [^14C]-ixazomib containing approximately 500 nCi of TRA (specific activity of 125 nCi/mg); and (2) to characterize the PK of ixazomib in plasma and urine, and of TRA in plasma and whole blood, after a single oral solution dose of 4.1 mg [^14C]-ixazomib. The secondary objective was to assess the safety and tolerability of multiple-dose ixazomib administration in patients with advanced solid tumors or lymphoma.
# (§2) This study was conducted in two parts: a 35-day PK cycle (Part A), followed by repeated 28-day treatment cycles (Part B; Fig. 1). In Part A of the study, patients who met the inclusion and exclusion criteria were admitted to the study clinic on the morning of day 1 for the initial confinement period (days 1–8). Patients received a single 10 mL oral solution dose of 4.1 mg [^14C]-ixazomib containing approximately 500 nCi of TRA, followed by 3 × 10 mL water rinses of the dosing cup. Patients then drank approximately 200 mL of water. Patients returned to the clinic on days 14, 21, 28, and 35 for a 24 h overnight clinic visit. Non-radiolabeled doses of ixazomib (4 mg capsule) were administered on days 14 and 21. After completing their day 35 assessments in Part A, patients were permitted to continue into Part B of the study, where they received non-radiolabeled ixazomib (4 mg capsules) once weekly on days 1, 8, and 15 of each 28-day treatment cycle until disease progression or unacceptable toxicity. All doses of ixazomib were administered on an empty stomach, at least 1 h before or at least 2 h after food.
# (§3) Plasma and whole blood samples were collected at the following time points after ixazomib administration on day 1 of Part A: 0 (predose), 0.5, 1, 2, 3, 4, 8, 24, 48, 72, 96, 120, 144, 168, 312 (day 14), 480 (day 21), 648 (day 28), and 816 (day 35) h post dose. Complete urinary and fecal output was collected continuously during the initial confinement period of Part A (days 1–8). Patients were discharged from the clinic on day 8 and returned on days 14, 21, 28, and 35 for a 24 h overnight visit. Urinary and fecal output was collected during each of these 24 h overnight clinic visits. Patients were also instructed to collect all feces at home for the 24 h period before each overnight clinic visit (days 13, 20, 27, and 34).
# To achieve enhanced analytical sensitivity, accelerator mass spectrometry (AMS) was used to determine TRA in urine, feces, whole blood, and plasma samples. […] At the testing facility (Accium BioSciences, Seattle, WA, USA), samples were assigned a unique tracking number, labeled, and stored at −70 °C until further analysis. Samples were subsequently removed from storage, thawed at room temperature, and thoroughly mixed. A known aliquot of each specimen was transferred to a pre-baked quartz tube and a known amount of carbon carrier added. Samples were then dried using vacuum centrifugation and submitted for graphitization; a known amount of each specimen was combusted and then reduced to graphite for measurement of total ^14C in the sample [22]. The resulting iron-graphite mixture was pressed into individual cathodes and submitted for AMS measurement on a National Electrostatics 5.2.1.Corporation (NEC) 1.5SDH Compact AMS System (Middleton, WI) running data acquisition software developed by NEC. Total carbon measurements were performed on a Shimadzu V-Series Total 5.2.2.Organic Carbon Analyzer, which uses oxidative combustion combined with non-dispersive infrared detection for the determination of total carbon concentrations. […]
# [3] = Safety and tolerability (treatment-emergent adverse events) of ixazomib in patients with advanced solid tumors; format: in vivo, human
# Experimental: as §1, §2
# CYP2C9 = tested on: CYP2C9; design: method as in earlier work; settings: 10 μM, exceeding clinical concentrations; cited from earlier work
# [4] = design: method as in PMID 28290121; settings: population PK estimate; cited from earlier work
# CYP3A4 = tested on: CYP3A4; design: method as in earlier work; settings: 10 μM, exceeding clinical concentrations; cited from earlier work
# [5] = cited from earlier work
# [6] = design: method as in PMID 28800141; settings: cited from earlier work
# advanced solid tumors = assay: Disease status during the study (efficacy, not a formal endpoint); format: in vivo, human; settings: for Time on study with long-term stable disease: single-agent ixazomib
# Experimental: as §2
# [7] = cited from earlier work; remark: listed apart in the source
# CYP2B6 = tested on: CYP2B6; design: method as in earlier work; settings: 10 μM, exceeding clinical concentrations; cited from earlier work
# CYP2D6 = tested on: CYP2D6; design: method as in earlier work; settings: 10 μM, exceeding clinical concentrations; cited from earlier work
# [8] = tested on: plasma proteins, primarily serum albumin; design: method as in PMID 27121262, PMID 27196567; settings: cited from earlier work
# CYP2C19 = tested on: CYP2C19; design: method as in earlier work; settings: 10 μM, exceeding clinical concentrations; cited from earlier work
# [9] = design: method as in PMID 28550039; settings: 4 mg capsules, relapsed or refractory light-chain amyloidosis, cited from earlier work
# CYP2C8 = tested on: CYP2C8; design: method as in earlier work; settings: 10 μM, exceeding clinical concentrations; cited from earlier work
# [10] = PK of ixazomib in plasma and urine (LC/MS/MS) after a single [14C]-ixazomib oral solution dose, phase I human ADME study Part A; format: in vivo; settings: N = 5
# Experimental: as §1, §2, §3
# Plasma and urine concentrations of ixazomib were measured using a validated liquid chromatography/tandem mass spectrometry (LC/MS/MS) assay with a quantitation range of 0.5–500 ng/mL [16].
# The plasma PK of ixazomib was characterized over the first 14 days post dose, while the urine PK and excretion of ixazomib was assessed over the first 7 days post dose. TRA in plasma, whole blood, urine, and feces was assessed over the 35-day post-dose period in Part A. Mass balance of radiolabeled ixazomib was characterized based on the sum of cumulative amounts excreted in feces and urine during the continuous collection interval up to 7 days post dose (day 8, 168 h), and the interpolated amounts excreted in feces and urine between the weekly intermittent collections up to 35 days post dose. For the intervals of time during which urine and feces were not collected, the interval recovery of TRA was estimated as the area under the excretion rate-time curve from the end of the preceding collection interval to the start of the subsequent collection interval. PK parameters were calculated by non-compartmental analysis methods (Phoenix WinNonlin version 6.2, Certara, Princeton, NJ, USA).
# [11] = design: method as in PMID 25011071; settings: patients with MM; cited from earlier work
smiles,measurement,setting,value
CC(C)C[C@H](NC(=O)CNC(=O)c1cc(Cl)ccc1Cl)B(O)O [ixazomib],Median progression-free survival,"relapsed/refractory MM; ixazomib (4 mg starting dose) added to lenalidomide and dexamethasone, RRMM patients, versus 14.7 months with placebo",20.6 months
same,Progression-free survival hazard ratio,"relapsed/refractory MM; ixazomib plus lenalidomide and dexamethasone versus placebo plus lenalidomide and dexamethasone, p = 0.012",0.74
same,Estimated relative contribution of 1A2 to metabolism,CYP1A2,26%
same,Metabolic pathways in vitro,[1],metabolized by multiple cytochrome P450 (CYP) and non-CYP proteins with CYP450 enzymes playing only a minor role
same,"Cumulative TRA recovered in feces (days 1–35, %) of administered dose","[2]; Mean (SD), N = 5",21.8% and 21.8 (3.41) %
same,"Cumulative TRA recovered in urine (days 1–35, %) of administered dose","[2]; Mean (SD), N = 5",62.1% and 62.1 (21.2) %
same,Total recovery (%) of TRA in urine and feces,"[2]; Mean (SD), N = 5",83.9 (20.7) %
same,"Cumulative TRA recovered in feces (days 1–35, %) of administered dose",[2]; Patient 001,18.3%
same,"Cumulative TRA recovered in urine (days 1–35, %) of administered dose",[2]; Patient 001,40.8%
same,Total recovery (%) of TRA in urine and feces,[2]; Patient 001,59.1%
same,"Cumulative TRA recovered in feces (days 1–35, %) of administered dose",[2]; Patient 002,18.7%
same,"Cumulative TRA recovered in urine (days 1–35, %) of administered dose",[2]; Patient 002,96.0%
same,Total recovery (%) of TRA in urine and feces,[2]; Patient 002,115%
same,"Cumulative TRA recovered in feces (days 1–35, %) of administered dose",[2]; Patient 005,26.4%
same,"Cumulative TRA recovered in urine (days 1–35, %) of administered dose",[2]; Patient 005,58.5%
same,Total recovery (%) of TRA in urine and feces,[2]; Patient 005,84.9%
same,"Cumulative TRA recovered in feces (days 1–35, %) of administered dose",[2]; Patient 006,23.7%
same,"Cumulative TRA recovered in urine (days 1–35, %) of administered dose",[2]; Patient 006,49.3%
same,Total recovery (%) of TRA in urine and feces,[2]; Patient 006,73.0%
same,"Cumulative TRA recovered in feces (days 1–35, %) of administered dose",[2]; Patient 007,21.9%
same,"Cumulative TRA recovered in urine (days 1–35, %) of administered dose",[2]; Patient 007,65.7%
same,Total recovery (%) of TRA in urine and feces,[2]; Patient 007,87.6%
same,Daily increment in excretion of TRA,[2]; after day 28,< 1%
same,Mean cumulative excretion of TRA in urine and feces,[2]; by day 14 post dose,59.0%
same,Mean total recovery of TRA in urine and feces,[2]; day 28 (plateau of excretion rate),79.4%
same,"Orally administered dose absorbed into the systemic circulation, suggested by urinary recovery",[2]; inferred from urinary TRA recovery,at least 62%
same,Abdominal pain incidence,"[3]; human, in vivo",43%
same,Constipation incidence,"[3]; human, in vivo",29%
same,Decreased appetite incidence,"[3]; human, in vivo",43%
same,Diarrhea incidence,"[3]; human, in vivo",71%
same,Dry mouth incidence,"[3]; human, in vivo",14%
same,Headache incidence,"[3]; human, in vivo",43%
same,Nausea incidence,"[3]; human, in vivo",29%
same,Patients experiencing a grade 3 AE (influenza and platelet count decreased),"[3]; human, in vivo",two patients
same,Patients with a drug-related event,"[3]; human, in vivo",86%
same,Premature discontinuation or dose reduction due to an adverse event,"[3]; human, in vivo",No patients
same,"Serious adverse event (influenza, deemed unrelated to study drug)","[3]; human, in vivo",One patient
same,TEAEs affecting the gastrointestinal system,"[3]; human, in vivo",all patients experiencing an event
same,Vomiting incidence,"[3]; human, in vivo",29%
same,Deaths on study,[3]; safety population N = 7,no patients died while on study
same,Estimated relative contribution of 2C9 to metabolism,CYP2C9,< 1%
same,Absolute oral bioavailability,[4],58%
same,Steady-state volume of distribution,[4],543 L
same,Systemic clearance,[4],1.86 L/h
same,Terminal disposition phase half-life (t1/2),[4],228 h
same,Estimated relative contribution of 3A4 to metabolism,CYP3A4,42%
same,Higher total systemic exposure of ixazomib,[5]; moderate and severe hepatic impairment,20%
same,Effect of mild hepatic impairment (total bilirubin ≤1.5 x ULN) on ixazomib PK,[5]; population PK analyses,no clinically meaningful effect
same,Effect of mild renal impairment (CrCl ≥30 mL/min) on ixazomib PK,[5]; population PK analyses,no clinically meaningful effect
same,Higher total systemic exposure of ixazomib compared with normal renal function,[5]; severe renal impairment and end-stage renal disease,39%
same,Plasma exposures versus patients with normal organ function,"[5]; severe renal impairment, end-stage renal disease requiring dialysis, moderate or severe hepatic impairment, dedicated phase I studies",increased
same,Reduction of plasma exposures (AUC) of ixazomib,[6]; co-administration of rifampin,74%
same,Effect of strong CYP3A inhibitors on ixazomib PK,[6]; ketoconazole and clarithromycin,no significant effect
same,Patients who developed progressive disease during the study period,advanced solid tumors; 7 patients enrolled,5 patients
same,Time on study with long-term stable disease,advanced solid tumors; patient with cholangiocarcinoma,162 days
same,Time on study with long-term stable disease,advanced solid tumors; patient with ovarian cancer,427 days
same,Median time to first maximum observed concentration (Tmax),[7]; after oral administration,approximately 1 h
same,Effect of a high-fat meal on ixazomib absorption,[7],decreases both the rate and extent of ixazomib absorption
same,Geometric mean t1/2,[7],228 h
same,Estimated relative contribution of 2B6 to metabolism,CYP2B6,16%
same,Estimated relative contribution of 2D6 to metabolism,CYP2D6,5%
same,Bound to plasma proteins,[8],99%
same,Estimated relative contribution of 2C19 to metabolism,CYP2C19,5%
same,Whole blood to plasma AUC0–168 ratio for ixazomib alone,[9]; day 1,12.7
same,Whole blood to plasma AUC0–168 ratio for ixazomib alone,[9]; day 15,9.86
same,Estimated relative contribution of 2C8 to metabolism,CYP2C8,6%
same,AUC(0-t),"[10]; human, plasma, po, 4.1 mg, plasma, single 4.1 mg oral solution dose of [14C]-ixazomib, read-out: Geometric mean AUC0–168, ng*h/mL (%CV), ixazomib",847 ng·h/mL
same,AUC(0-t),"[10]; human, plasma, po, 4.1 mg, plasma, single 4.1 mg oral solution dose of [14C]-ixazomib, read-out: Geometric mean AUC0–312, ng*h/mL (%CV), ixazomib",1180 ng·h/mL
same,dose excreted,"[10]; human, urine, po, 4.1 mg, up to 168 h post dose, single 4.1 mg oral solution dose, read-out: Mean urinary recovery, % (SD): administered dose recovered in urine as unchanged drug",< 3.5%
same,Cmax,"[10]; human, plasma, single 4.1 mg oral solution dose of [14C]-ixazomib, read-out: Geometric mean Cmax, ng/mL (%CV), ixazomib",89.1 ng/mL
same,CL renal,"[10]; human, urine, single 4.1 mg oral solution dose of [14C]-ixazomib, read-out: Geometric mean CLR (renal clearance), L/h (%CV) (converted)",0.119 L/h
same,"Mean urinary recovery, % (SD): administered dose recovered in urine as unchanged drug","[10]; up to 168 h post dose, single 4.1 mg oral solution dose",3.23 (2.13) %
CC(C)C[C@H](NC(=O)[C@H](Cc1ccccc1)NC(=O)c1cnccn1)B(O)O [bortezomib],Concentrations in whole blood higher than those observed in plasma,[11],3 fold
